# Legend:
# [1] = test system: untransfected CHO DUKX B 1 cells; assay: MTT cell viability, control untransfected CHO cells; type: cell-based, Chinese Hamster; settings: carbachol or pirenzepine; 5 days; Figure 2A
# [2] = biological target: T1, human β2-adrenergic receptor (Homo sapiens, UniProt P07550); assay: Cell morphology (photomicroscopy) of β2-adrenergic receptor-expressing cell line; type: cell-based; settings: several days
# T1 construct: expressed in transfected cells
# Procedure: Several days later, cells were analyzed by photomicroscopy to determine the effect of treatment on cell morphology. […] Assessment of the agonist or antagonist properties of individual compounds or libraries of compounds can be achieved by, for example, microscopic observation of the cells, or alternatively, by video digitizing techniques to quantify cell shape changes and/or cell alignment changes.
# untransfected CHO cells = assay: Cell morphology, control untransfected CHO cells; type: cell-based, Chinese Hamster; settings: cells not expressing the recombinant β2-adrenergic receptor
# Procedure: . Several days later, cells were analyzed by photomicroscopy to determine the effect of treatment on cell morphology. […]. Salbutamol induced both a change in cell shape (i.e., elongation of the cells) and an alignment of the cells with each other. […]. Assessment of the agonist or antagonist properties of individual compounds or libraries of compounds can be achieved by, for example, microscopic observation of the cells, or alternatively, by video digitizing techniques to quantify cell shape changes and/or cell alignment changes. […]
# T1 sequence (P07550 whole entry): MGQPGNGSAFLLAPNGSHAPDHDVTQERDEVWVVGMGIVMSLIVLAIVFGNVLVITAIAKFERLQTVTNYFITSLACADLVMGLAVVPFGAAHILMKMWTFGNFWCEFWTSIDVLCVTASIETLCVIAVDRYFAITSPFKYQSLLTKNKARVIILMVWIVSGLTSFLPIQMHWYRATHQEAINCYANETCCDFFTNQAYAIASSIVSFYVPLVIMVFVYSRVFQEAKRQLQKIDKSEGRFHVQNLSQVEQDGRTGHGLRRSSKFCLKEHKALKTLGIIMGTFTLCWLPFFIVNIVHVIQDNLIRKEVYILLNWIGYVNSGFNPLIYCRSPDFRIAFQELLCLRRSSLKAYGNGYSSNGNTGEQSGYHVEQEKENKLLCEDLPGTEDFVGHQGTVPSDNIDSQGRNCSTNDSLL
structure (smiles),measurement,setting,value
CN1CCN(CC(=O)N2c3ccccc3C(=O)Nc3cccnc32)CC1 [pirenzepine],viability of untransfected CHO cells (MTT),[1],little effect
COc1ccc(OC)c(C(O)C(C)NC(C)(C)C)c1 (centres unmarked) [butoxamine],"cell morphology, antagonism of salbutamol effect",[2]; 10 nM butoxamine together with salbutamol,indistinguishable from control cells
same,effect of treatment on cell morphology (cell shape and alignment),"[2]; compound alone (salbutamol 1 nM), photomicroscopy, Figure 4",no detectable change in cell shape or alignment
C[N+](C)(C)CCOC(N)=O [carbachol],viability of untransfected CHO cells (MTT),[1],little effect
CC(C)(C)NCC(O)c1ccc(O)c(CO)c1 (centres unmarked) [salbutamol],change in cell shape or alignment on untransfected CHO cells,untransfected CHO cells,no detectable change in cell shape or alignment
